Tests used:
[1] = molecular target: BCL-2 (binding to BAK peptide) (Homo sapiens, UniProt P10415); assay: SPR (Biacore) solution inhibition assay, BCL-2 binding to immobilized BAK peptide; details: biotinylated BAK peptide surface, 56 nM BCL-2, 25° C.; range = high and low IC50 values from multiple experiments; read-out: BCL2_SPR IC50 BAK
Outline: (§1)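 Compounds (6-point threefold series, 16 μM to 0.004 nM) preincubated 1 h with 56 nM BCL-2, then injected 60 s over biotinylated peptide captured on streptavidin chips at 25° C. Running buffer: 10 mM HEPES pH 7.4, 150 mM NaCl, 1.25 mM DTT, 3% DMSO, 0.05% polysorbate 20. % inhibition versus BCL-2-only binding gave IC50.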

[2] = molecular target: BCL-2 (binding to BAD peptide) (Homo sapiens, UniProt P10415); assay: SPR (Biacore) solution inhibition assay, BCL-2 binding to immobilized BAD peptide; details: biotinylated BAD peptide surface, 56 nM BCL-2, 25° C.; range = high and low IC50 values from multiple experiments; read-out: BCL2_SPR IC50 BAD
Outline: as §1

Chain of BCL-2 (binding to BAD peptide) (P10415 whole entry): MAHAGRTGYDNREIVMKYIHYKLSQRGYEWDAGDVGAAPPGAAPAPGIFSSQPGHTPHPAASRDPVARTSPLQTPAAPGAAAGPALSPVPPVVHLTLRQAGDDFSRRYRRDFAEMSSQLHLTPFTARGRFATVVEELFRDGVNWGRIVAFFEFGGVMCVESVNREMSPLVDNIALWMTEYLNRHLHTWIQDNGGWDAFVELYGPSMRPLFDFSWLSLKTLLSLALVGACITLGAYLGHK
Chain of BCL-2 (binding to BAK peptide) (P10415 whole entry): as above

IC50 [1] | IC50 [2] | SMILES
436 to 500 nM | 537 to 546 nM | CCCCN(CCCC)C(=O)c1cc(C)n(-c2ccc(NC(=O)Cc3ccc(F)cc3Cl)cc2C(=O)N2Cc3ccccc3C[C@H]2CO)n1 [Example 158]
95.4 to 98.2 nM | 119 to 123 nM | CCCCN(CCCC)C(=O)c1cc(C)n(-c2ccc(NC(=O)Cc3ccc(OC)c(OC)c3)cc2C(=O)N2Cc3ccccc3C[C@H]2CO)n1 [Example 136]
1970 to 2070 nM | 2470 to 2630 nM | CCCCN(CCCC)C(=O)c1cc(C)n(-c2ccc(NC(=O)c3ccc(Oc4ccccc4)nc3)cc2C(=O)N2Cc3ccccc3C[C@H]2CO)n1 [Example 141]
275 to 287 nM | 315 to 343 nM | CCCCN(CCCC)C(=O)c1cc(C)n(-c2ccc(NC(=O)c3cccc(-c4ccccc4F)c3)cc2C(=O)N2Cc3ccccc3C[C@H]2CO)n1 [Example 140]
396 to 471 nM | 467 to 500 nM | CCCCN(CCCC)C(=O)c1cc(C)n(-c2ccc(NC(=O)c3ccccc3Nc3ccccc3[N+](=O)[O-])cc2C(=O)N2Cc3ccccc3C[C@H]2CO)n1 [Example 146]
339 to 358 nM | 348 to 392 nM | CCCCN(CCCC)C(=O)c1cc(C)n(-c2ccc(NC(=O)CS(=O)(=O)c3ccccc3)cc2C(=O)N2Cc3ccccc3C[C@H]2CO)n1 [Example 152]
393 to 448 nM | 438 to 511 nM | CCCCN(CCCC)C(=O)c1cc(C)n(-c2ccc(NC(=O)c3cc(OC)ccc3O)cc2C(=O)N2Cc3ccccc3C[C@H]2CO)n1 [Example 153]

The next lines start with the compound.

SMILES | IC50 [1] | IC50 [2]
CCCCN(CCCC)C(=O)c1cc(C)n(-c2ccc(NC(=O)C(Cc3ccccc3)C(=O)O)cc2C(=O)N2Cc3ccccc3C[C@H]2CO)n1 (stereo partly shown) [Example 25] | 63.4 to 72.2 nM | 67.6 to 67.8 nM
CCCCN(CCCC)C(=O)c1cc(C)n(-c2ccc(NC(=O)C(Cc3ccccc3)C(=O)O)cc2C(=O)N2Cc3ccccc3C[C@H]2CO)n1 (stereo partly shown) [Example 34] | 63.4 to 72.2 nM | 67.6 to 67.8 nM
CCCCN(CCCC)C(=O)c1cc(C)n(-c2ccc(NC(=O)C3CC(=O)N(Cc4ccc(F)cc4)C3)cc2C(=O)N2Cc3ccccc3C[C@H]2CO)n1 (stereo partly shown) [Example 50] | 554 to 643 nM | 702 to 723 nM
CCCCN(CCCC)C(=O)c1cc(C)n(-c2ccc(NC(=O)OCC)cc2C(=O)N2Cc3ccccc3C[C@H]2CO)n1 [Example 11] | 550 to 557 nM | 591 to 599 nM
CCCCN(CCCC)C(=O)c1cc(C)n(-c2ccc(NC(=O)Cc3cccc(Cl)c3)cc2C(=O)N2Cc3ccccc3C[C@H]2CO)n1 [Example 76] | 50.5 to 51.3 nM | 59.8 to 59.9 nM
CCCCN(CCCC)C(=O)c1cc(C)n(-c2ccc(NC(=O)c3cc(-c4ccccc4)nn3-c3ccc(F)cc3)cc2C(=O)N2Cc3ccccc3C[C@H]2CO)n1 [Example 120] | 494 to 559 nM | 726 to 732 nM
CCCCN(CCCC)C(=O)c1cc(C)n(-c2ccc(NC(=O)C(CC(=O)N(C)C)c3ccccc3)cc2C(=O)N2Cc3ccccc3C[C@H]2CO)n1 (stereo partly shown) [Example 99] | 111 to 144 nM | 130 to 171 nM
CCCCN(CCCC)C(=O)c1cc(C)n(-c2ccc(NC(=O)C(CCNC(C)=O)c3ccccc3)cc2C(=O)C2Cc3ccccc3C[C@H]2CO)n1 (stereo partly shown) [Example 74] | 80.8 to 81.4 nM | 95.1 to 96 nM
CCCCN(CCCC)C(=O)c1cc(C)n(-c2ccc(NC(=O)c3nn(C)c4ncccc34)cc2C(=O)N2Cc3ccccc3C[C@H]2CO)n1 [Example 45] | 499 to 556 nM | 689 to 773 nM
CCCCN(CCCC)C(=O)c1cc(C)n(-c2ccc(NC(=O)CCc3ccccc3)cc2C(=O)N2Cc3ccccc3C[C@H]2CO)n1 [Example 8] | 191 to 287 nM | 198 to 260 nM
CCCCN(CCCC)C(=O)c1cc(C)n(-c2ccc(NC(=O)[C@H](C)c3ccccc3)cc2C(=O)N2Cc3ccccc3C[C@H]2CO)n1 [Example 113] | 562 to 660 nM | 671 to 708 nM
CCCCN(CCCC)C(=O)c1cc(C)n(-c2ccc(NC(=O)Oc3ccccc3)cc2C(=O)N2Cc3ccccc3C[C@H]2CO)n1 [Example 10] | 283 to 308 nM | 501 to 522 nM
CCCCN(CCCC)C(=O)c1cc(C)n(-c2ccc(NC(=O)COc3ccc(OC)cc3)cc2C(=O)N2Cc3ccccc3C[C@H]2CO)n1 [Example 24] | 6420 to 8640 nM | 8620 to 11900 nM
